Here are results for one molecule from patent US10668076B1, “Compositions and methods of targeting mutant K-Ras” (NantBio, Inc., priority 2011, dated 2020).

The structures appear in SMILES notation. Bounds are passed on as bounds.

The test system of the series is K-Ras wild type expressing 293 cells. The note with it: FIG. 6B.

Experimental: SW480 and HT29 cells are both propagated at 37° C./5% CO2 and in RPMI+10% fetal bovine serum (FBS) and DMEM+10% FBS, respectively. Upon plating cells in microtiter plates, compounds are supplemented at various concentrations and viability is assessed within 24-72 hrs by manual or automated (Countess (Invitrogen)) trypan blue cytometry.

In the case of `Cc1ccc(Nc2nc(N/N=C/c3cccc([N+](=O)[O-])c3O)nc(N3CCOCC3)n2)cc1` [A0383, 2-(hydroxynitroso)-6-[(1E)-(2-{4-[(4-methylphenyl)amino]-6-(morpholin-4-yl)-1,3,5-triazin-2-yl}hydrazin-1-ylidene)methyl]phenol], the general toxicity result (293 cells not overexpressing mutant K-Ras, dosages 50-100 µM) was “lack of general toxicity”. Further, where the note is “read-out: IC50 (cell death, unspecific toxicity), K-Ras wild type expressing 293 cells”, the half-maximal inhibitory concentration (IC50) (in general, the concentration at which inhibition is half-maximal) was above 100 µM.
